Results on 25 compounds are retold here after PubChem BioAssay AID330 (DTP/NCI, 2004).

The subject of the test is P388 leukemia ip, CD2F1 mice, survival T/C. Put plainly: NCI In Vivo Anticancer Drug Screen. Data for tumor model P388 Leukemia (intraperitoneal) in CD2F1 (CDF1) mice. The conditions noted are these: endpoint: median survival time, higher = longer survival. The procedure, abridged:
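Mice carrying the transplanted tumor received test compound or vehicle. Survival was recorded in each group, and the value is the treated-group measurement divided by that of the vehicle-treated control group.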

Setting [1] is: dose: 100.0 mg/kg/injection, schedule: Q04DX003 (ip), vehicle: Klucel (hydroxypropylcellulose) (HPC).
The mark [2] stands for this setting: dose: 200.0 mg/kg/injection, schedule: Q04DX003 (ip), vehicle: Klucel (hydroxypropylcellulose) (HPC).
Setting [3] is: dose: 400.0 mg/kg/injection, schedule: Q04DX003 (ip), vehicle: Klucel (hydroxypropylcellulose) (HPC).
[4] abbreviates: dose: 50.0 mg/kg/injection, schedule: Q01DX005 (ip), vehicle: saline with Tween-80.
[5] abbreviates: dose: 100.0 mg/kg/injection, schedule: Q01DX005 (ip), vehicle: saline with Tween-80.
Setting [6] is: dose: 200.0 mg/kg/injection, schedule: Q01DX005 (ip), vehicle: saline with Tween-80.
The mark [7] stands for this setting: dose: 60.0 mg/kg/injection, schedule: Q01DX005 (ip), vehicle: saline with Tween-80.
Setting [8] is: dose: 120.0 mg/kg/injection, schedule: Q01DX005 (ip), vehicle: saline with Tween-80.
Where [9] appears, read: dose: 240.0 mg/kg/injection, schedule: Q01DX005 (ip), vehicle: saline with Tween-80.
Setting [10] is: dose: 50.0 mg/kg/injection, schedule: Q01DX005 (ip), vehicle: Klucel (hydroxypropylcellulose) (HPC).
[11] abbreviates: dose: 100.0 mg/kg/injection, schedule: Q01DX005 (ip), vehicle: Klucel (hydroxypropylcellulose) (HPC).
[12] abbreviates: dose: 200.0 mg/kg/injection, schedule: Q01DX005 (ip), vehicle: Klucel (hydroxypropylcellulose) (HPC).
The mark [13] stands for this setting: dose: 50.0 mg/kg/injection, schedule: Q01DX009 (ip), vehicle: saline with Tween-80.
[14] abbreviates: dose: 100.0 mg/kg/injection, schedule: Q01DX009 (ip), vehicle: saline with Tween-80.
Setting [15] is: dose: 100.0 mg/kg/injection, schedule: Q04DX003 (ip), vehicle: saline.
The mark [16] stands for this setting: dose: 200.0 mg/kg/injection, schedule: Q04DX003 (ip), vehicle: saline.
Where [17] appears, read: dose: 400.0 mg/kg/injection, schedule: Q04DX003 (ip), vehicle: saline.

Toxic doses and inconclusive results are not listed.

Regarding `COc1ccc2nc3c(C)c4ccn(Cc5ccc(I)cc5)cc4c(C)c3c2c1`, the T/C is, setting by setting: (dose: 13.5 mg/kg/injection, schedule: Q04DX002 (ip), vehicle: saline with Tween-80) 116 % of control; (dose: 27.0 mg/kg/injection, schedule: Q04DX002 (ip), vehicle: saline with Tween-80) 113 % of control; (dose: 54.0 mg/kg/injection, schedule: Q04DX002 (ip), vehicle: saline with Tween-80) 122 % of control; (dose: 108.0 mg/kg/injection, schedule: Q04DX002 (ip), vehicle: saline with Tween-80) 105 % of control.

On to `COc1ccc(N=Nc2nc(N)c(C(N)=O)[nH]2)cc1`, for which the T/C is, setting by setting: under setting [1], 100 % of control; under setting [2], 103 % of control; under setting [3], 106 % of control.

Take `O=[N+]([O-])OC1CCCC(O[N+](=O)[O-])c2c1n([O-])c1ccccc1[n+]2=O` (stereo unspecified): the T/C was 95 % of control under setting [4], 89 % of control under setting [5] and 92 % of control under setting [6].

Regarding `CCC12C=CCN3CCC4(c5cc(C6(C(=O)OC)CCCCCc7c6[nH]c6ccccc76)c(OC)cc5N(C)C4C(O)(C(=O)OC)C1OC(C)=O)C32` (stereo unspecified), the T/C was 106 % of control (dose: 12.5 mg/kg/injection, schedule: Q01DX001 (ip), vehicle: distilled water + Tween-80); 109 % of control (dose: 25.0 mg/kg/injection, schedule: Q01DX001 (ip), vehicle: distilled water + Tween-80); 106 % of control (dose: 50.0 mg/kg/injection, schedule: Q01DX001 (ip), vehicle: distilled water + Tween-80); 95 % of control (dose: 100.0 mg/kg/injection, schedule: Q01DX001 (ip), vehicle: distilled water + Tween-80); 95 % of control (dose: 200.0 mg/kg/injection, schedule: Q01DX001 (ip), vehicle: distilled water + Tween-80).

For `CC1CC(C)(C)OC(C2CC=CCC2C)O1` (stereo unspecified), the T/C is, setting by setting: under setting [4], 97 % of control; under setting [5], 100 % of control; under setting [6], 109 % of control.

Turning to `C[Si](C)(C)N1CCOC1=O`, the T/C under setting [7] was 109 % of control, the T/C under setting [8] is 103 % of control and the T/C under setting [9] was 108 % of control.

`N#CC(C#N)=C1c2ccccc2C(=O)c2ccccc21`: the T/C reads like this: under setting [10], 88 % of control; under setting [11], 88 % of control; under setting [12], 92 % of control.

As for `O/N=C(\c1ccccc1)C1c2ccccc2-c2ccccc21`, the T/C was 94 % of control under setting [7], 94 % of control under setting [8] and 94 % of control under setting [9].

`O=C(O)c1ccc(N=NC2Sc3nc4ccccc4n3C2=O)cc1` (stereo unspecified): the T/C is 92 % of control (dose: 60.0 mg/kg/injection, schedule: Q01DX005 (ip), vehicle: Klucel (hydroxypropylcellulose) (HPC)) and 91 % of control (dose: 120.0 mg/kg/injection, schedule: Q01DX005 (ip), vehicle: Klucel (hydroxypropylcellulose) (HPC)).

`COc1ccc(CC(N)c2nn[nH]n2)cc1` (stereo unspecified): the T/C was 96 % of control under setting [13] and 98 % of control under setting [14].

For `NC(=O)C1(Br)C=[N+](Cc2ccccc2)CCC1` (stereo unspecified), the T/C runs as follows: (dose: 60.0 mg/kg/injection, schedule: Q01DX005 (ip), vehicle: saline) 103 % of control; (dose: 120.0 mg/kg/injection, schedule: Q01DX005 (ip), vehicle: saline) 95 % of control.

Consider `CCCCCCCC1(O)OC(=O)C(C)=C1C` (stereo unspecified), for which the T/C by setting is: (dose: 12.5 mg/kg/injection, schedule: Q04DX003 (ip), vehicle: saline with Tween-80) 101 % of control; (dose: 25.0 mg/kg/injection, schedule: Q04DX003 (ip), vehicle: saline with Tween-80) 108 % of control; (dose: 50.0 mg/kg/injection, schedule: Q04DX003 (ip), vehicle: saline with Tween-80) 100 % of control.

For `O=[N+]([O-])c1cc2cc(Cl)c3ccccc3c2o1`, the T/C was 100 % of control under setting [10], 102 % of control under setting [11] and 102 % of control under setting [12].

Take `Cc1nn(C(N)=S)c(C)c1N=Nc1cc(Cl)ccc1Cl`: the T/C under setting [4] is 94 % of control, the T/C under setting [5] is 86 % of control and the T/C under setting [6] is 88 % of control.

With `CC(/C=N\Nc1ccc(C(=O)O)cc1)=N/N(C)C`, the T/C by setting is: under setting [15], 101 % of control; under setting [16], 98 % of control; under setting [17], 101 % of control.

On to `CCCCCNS(=O)(=O)c1ccc(C)cc1`, for which the T/C is, setting by setting: (dose: 50.0 mg/kg/injection, schedule: Q01DX009 (ip), vehicle: saline + alcohol) 107 % of control; (dose: 100.0 mg/kg/injection, schedule: Q01DX009 (ip), vehicle: saline + alcohol) 107 % of control; (dose: 200.0 mg/kg/injection, schedule: Q01DX009 (ip), vehicle: saline + alcohol) 118 % of control; (dose: 400.0 mg/kg/injection, schedule: Q01DX009 (ip), vehicle: saline + alcohol) 101 % of control.

For the compound `C=CCSc1nnc(-c2ccc(C(C)(C)C)cc2)n1-c1cccc(C(F)(F)F)c1`, the T/C runs as follows: under setting [7], 100 % of control; under setting [8], 100 % of control; under setting [9], 94 % of control.

Take `Nc1ccc2cc(S(=O)(=O)O)cc(O)c2c1N=Nc1ccc(NC(=O)c2ccc(C(=O)Nc3ccc(N=Nc4c(N)ccc5cc(S(=O)(=O)O)cc(O)c45)c(S(=O)(=O)O)c3)cc2)cc1S(=O)(=O)O`: the T/C was 101 % of control (dose: 12.5 mg/kg/injection, schedule: Q01DX005 (ip), vehicle: saline with Tween-80); 96 % of control (dose: 25.0 mg/kg/injection, schedule: Q01DX005 (ip), vehicle: saline with Tween-80); 98 % of control under setting [4].

As to `O=P(N1CC1)(N1CC1)N1CC1`, the T/C (dose: 3.0 mg/kg/injection, schedule: Q01DX009 (ip), vehicle: saline) is 216 % of control.

For `CCN(CC)CCN(C)C(=O)C(O)(c1ccccc1)c1ccccc1`, the T/C runs as follows: (dose: 25.0 mg/kg/injection, schedule: Q01DX009 (ip), vehicle: saline) 100 % of control; (dose: 50.0 mg/kg/injection, schedule: Q01DX009 (ip), vehicle: saline) 104 % of control; (dose: 100.0 mg/kg/injection, schedule: Q01DX009 (ip), vehicle: saline) 104 % of control; (dose: 200.0 mg/kg/injection, schedule: Q01DX009 (ip), vehicle: saline) 100 % of control.

On to `[Mn].[NH-]C(CSSCC(N)C(=O)O)C(=O)O` (stereo unspecified), for which the T/C reads like this: under setting [15], 97 % of control; under setting [16], 114 % of control; under setting [17], 106 % of control.

Regarding `CN(C)c1nc2ccccn2c1C(=O)c1ccccc1`, the T/C is, setting by setting: under setting [1], 103 % of control; under setting [2], 100 % of control; under setting [3], 103 % of control.

With `CCCCNC(=O)NC1OC(CO)C(O)C1O` (stereo unspecified), the T/C (dose: 50.0 mg/kg/injection, schedule: Q01DX005 (ip), vehicle: saline) is 98 % of control; the T/C (dose: 100.0 mg/kg/injection, schedule: Q01DX005 (ip), vehicle: saline) is 97 % of control; the T/C (dose: 200.0 mg/kg/injection, schedule: Q01DX005 (ip), vehicle: saline) was 100 % of control.

Take `CCCCCC/C=C\C(=O)O[C@H]1C(=O)O[C@@H]2C[C@H]3C(C)=C(O)C(=O)C[C@]3(C)[C@H]3[C@@H](O)[C@H](O)[C@@]4(C(=O)OC)OC[C@]32[C@@H]14`: the T/C is, setting by setting: (dose: 0.75 mg/kg/injection, schedule: Q01DX005 (ip), vehicle: Klucel (hydroxypropylcellulose) (HPC)) 105 % of control; (dose: 1.5 mg/kg/injection, schedule: Q01DX005 (ip), vehicle: Klucel (hydroxypropylcellulose) (HPC)) 111 % of control; (dose: 3.0 mg/kg/injection, schedule: Q01DX005 (ip), vehicle: Klucel (hydroxypropylcellulose) (HPC)) 112 % of control; (dose: 6.0 mg/kg/injection, schedule: Q01DX005 (ip), vehicle: Klucel (hydroxypropylcellulose) (HPC)) 116 % of control.

Take `N=C(N)SCc1ccc(C(=O)NN2C(=O)c3ccccc3C2=O)cc1`: the T/C runs as follows: under setting [13], 92 % of control; under setting [14], 92 % of control; (dose: 200.0 mg/kg/injection, schedule: Q01DX009 (ip), vehicle: saline with Tween-80) 97 % of control.
